Assay results as given in patent US20110046058A1, “COMPOSITIONS FOR ENTERAL ABSORPTION AND SUSTAINED ACTION OF LEPTIN-RELATED PEPTIDES USEFUL IN THE TREATMENT OF OBESITY AND LEPTIN-MODULATED DISEASE” (AEGIS THERAPEUTICS LLC, priority 2009, published 2011).
Where two headings read alike, the source gives them in different places. Where a SMILES comes first, the peptide text is derived from it.

Columns and labels:
[1] = in vivo
Text: (§1) Typically, an acceptable daily intake for humans is about 1% of the NOAEL, which translates to about 14-21 grams, or 14 million micrograms to 21 million micrograms, per day, indefinitely.

[2] = NOAEL of alkylsaccharide (FAO/WHO report); settings: per day, indefinitely
Text: as §1

[3] = FAO/WHO report; cited from earlier work
[4] = mouse, in vivo
Experimental: (§2) Six week-old male Swiss Webster mice weighing approximately 30 g were obtained from Taconic Farms (Germantown, N.Y., USA). The animals were housed three per cage in polycarbonate cages fitted with stainless steel wire lids and air filters, and supported on ventilated racks (Thoren Caging Systems, Hazelton, Pa., USA) in the Albany Medical College Animal Resources Facility. The mice were maintained at a constant temperature (24° C.) with lights on from 07:00 to 19:00 h, and allowed food and water ad libitum until used for uptake studies.
(§3) Following peptide administration the mice were transferred to separate cages for the designated time period.
(§4) Five, 10, 20, 40, 60, or 120 min after peptide delivery, the mice were anesthetized with isoflurane (5%) and exsanguinated by cardiac puncture. The blood was collected in sterile nonheparinized plastic centrifuge tubes and allowed to stand at room temperature for 1 h. The clotted blood was rimmed from the walls of the tubes with sterile wooden applicator sticks.
(§5) The coated plates were incubated overnight at 4° C. Unoccupied sites were blocked with 200 μL StartingBlock™ in PBS (Pierce Biotechnology Inc., Rockford, Ill., USA) for 2 h at room temperature. […] At the end of the incubation period, 100 μL of each antibody-bound standard or sample was added to the wells and incubated for 1 h at room temperature. HRP-conjugated goat-anti-rabbit IgG (Pierce Biotechnology Inc. Rockford, Ill., USA) was used as the secondary antibody. 100 μL was added to each well and incubated for 1 h at room temperature.

[5] = mouse, in vivo, 1 mg
Experimental: (§6) Six week-old male Swiss Webster mice weighing approximately 30 gm were maintained at a constant temperature (24 C) with lights on from 07:00 to 19:00 h, and allowed food and water ad libitum until used for uptake studies. […] For sc, im, and ip delivery, the peptide was dissolved in sterile phosphate buffered saline (PBS, pH 7.2) at a concentration of 1 mg/200 μL as described previously containing 0.18% tetradecyl-beta-D-maltoside. For oral gavage [D-Leu-4]OB3 was dissolved in 0.3% dodecyl-beta-D-maltoside reconstituted in PBS (pH 7.2) at a concentration of 1 mg/200 μL. At time zero (0), a single 200 μL sc, im, ip or oral dose of mouse [D-Leu-4]OB3 was given to each of six mice per time point. Following peptide administration, the mice were transferred to separate cages for the designated time period.
(§7) Five, 10, 20, 40, 60, or 120 minutes after peptide delivery, the mice were anesthetized with isoflurane (5%) and exsanguinated by cardiac puncture. The blood was collected in sterile nonheparinized plastic centrifuge tubes and allowed to stand at room temperature for 1 h. The clotted blood was rimmed from the walls of the tubes with sterile wooden applicator sticks. Individual serum samples were prepared by centrifugation for 30 min at 2600×g in an Eppendorf™ 5702R, A-4-38 rotor (Eppendorf North America, Westbury, N.Y., USA), and stored frozen until assayed for mouse [D-Leu-4]OB3 content by competitive ELISA.
(§8) The [D-Leu-4]OB3 competitive ELISA assay was carried out as follows. 96-well polystyrene plates (Pierce Biotechnology, Inc., Rockford, Ill., USA) were coated with 100 μL of a 5 ug/ml solution of BSA-conjugated mouse [D-Leu-4]OB3 (QED Bioscience, San Diego, Calif.) in carbonate-bicarbonate buffer (pH 9.4). The coated plates were incubated overnight at 4 C. Unoccupied sites were blocked with 200 μL StartingBlock™ in PBS (Pierce Biotechnology Inc., Rockford, Ill., USA) for 2 h at room temperature. Mouse [D-Leu-4]OB3 standards ranging from 5 to 10,000 ng/ml are prepared in PBS (pH 7.2). In a separate incubation, 100 μL of mouse [D-Leu-4]OB3 primary antibody raised in New Zealand White rabbits (QED Bioscience, San Diego, Calif.) and diluted to 1:5000 in StartingBlock™, or 100 μL of the primary antibody+50 μL of each standard or serum sample are added to 500 μL microcentrifuge tubes and incubated for 1 h at 37 C. At the end of the incubation period, 100 μL of each antibody-bound standard or sample were added to the wells and incubated for 1 h at room temperature. HRP-conjugated goat-anti-rabbit IgG (Pierce Biotechnology Inc, Rockford, Ill., USA) was used as the secondary antibody. 100 μL was added to each well and incubated for 1 h at room temperature. At the end of the incubation period, 100 μL of ABTS substrate (Pierce Biotechnology Inc, Rockford, Ill., USA) was added to each well and incubated for 30 minutes on a rotary rocker. Color development was stopped with 1% SDS. Absorbance was read at 405 nm with a Molecular Devices microplate reader (MDS Sciex, Concord, Ontario Canada). Each sample was assayed in triplicate. […] The relative bioavailability was determined by plotting the serum concentrations of mouse [D-Leu-4]OB3 vs. time following ip, sc, or im delivery using the graphics program SigmaPlot™ 8.0 (SPSS Science, Chicago, Ill., USA). The area under each curve (AUC) was calculated with a function of this program.

[6] = mouse, in vivo; remark: listed apart in the source
Experimental: as §2, §3, §4, §5

[7] = mouse, in vivo; remark: listed apart in the source
Experimental: as §6, §7, §8

Compound: sucrose dodecanoate
- amount a 70 kilogram person can consume per day without any observable adverse effect [1]: 1400-2100 grams
- acceptable daily intake for humans (about 1% of the NOAEL) [2]: 14-21 grams
- NOAEL [3]: 20-30 grams/kilogram/day

Compound: CC(C)C[C@@H](NC(=O)[C@H](CO)NC(=O)[C@H](CS)NC(=O)[C@@H](N)CO)C(=O)N1CCC[C@H]1C(=O)N[C@@H](CCC(N)=O)C(=O)N[C@H](C(N)=O)[C@@H](C)O [mouse [D-Leu-4]OB3] (HELM PEPTIDE1{S.C.S.[dL].P.Q.T.[am]}$$$$V2.0; N-terminus assumed)
- Cmax ([4]; im, 1 mg): 46600 ng/mL
- Tmax ([4]; im, 1 mg): 5 min
- AUC ([4]; im, 1 mg, AUC): 24700 ng·h/mL
- half-life ([4]; im, 1 mg, t1/2 (serum half-life)): 48.8 min
- AUC ([4]; inhaled or intranasal, 1 mg, AUC1): 15400 ng·h/mL
- AUC ([4]; inhaled or intranasal, 1 mg, AUC2): 56900 ng·h/mL
- half-life ([4]; inhaled or intranasal, t1/2 1): 7 min
- half-life ([4]; inhaled or intranasal, t1/2 1 + t1/2 2 (overall half-life)): 41.1 min
- half-life ([4]; inhaled or intranasal, t1/2 2): 34.1 min
- Cmax ([4]; ip, 1 mg): 22500 ng/mL
- Tmax ([4]; ip, 1 mg): 5 min
- AUC ([4]; ip, 1 mg, AUC): 17900 ng·h/mL
- half-life ([4]; ip, 1 mg, t1/2 (serum half-life)): 30 min
- Cmax ([4]; sc, 1 mg): 35100 ng/mL
- Tmax ([4]; sc, 1 mg): 5 min
- AUC ([4]; sc, 1 mg, AUC): 19700 ng·h/mL
- half-life ([4]; sc, 1 mg, t1/2 (serum half-life)): 35 min
- AUC ([5]; im): 24700 ng·h/mL
- AUC ([5]; ip): 17900 ng·h/mL
- AUC ([5]; po): 9320 ng·h/mL
- AUC ([5]; sc): 19700 ng·h/mL
- CL1 [6]: 1.08 mL/min
- CL2 [6]: 0.29 mL/min
- Relative bioavailability [6]: 4.0
- kelim1 [6]: 0.0986 min⁻¹
- kelim2 [6]: 0.0203 min⁻¹
- Relative bioavailability ([6]; im): 1.4
- AUC ([6]; im, 1 mg): 1,481,060 ng/ml/min
- CL (plasma clearance) ([6]; im, 1 mg): 0.68 mL/min
- Vd (apparent volume of distribution) ([6]; im, 1 mg): 29.4 mL
- CL1 + CL2 (overall clearance) ([6]; inhaled or intranasal): 1.37 mL/min
- Vd1 ([6]; inhaled or intranasal): 1.1 mL
- Vd1 + Vd2 (overall volume of distribution) ([6]; inhaled or intranasal): 15.4 mL
- Vd2 ([6]; inhaled or intranasal): 14.3 mL
- Cmax2 ([6]; inhaled or intranasal, 1 mg): 69,069 ng/ml
- Tmax2 ([6]; inhaled or intranasal, 1 mg): 60 min
- tmax1 ([6]; inhaled or intranasal, 1 mg): 10 min
- Relative bioavailability ([6]; ip): 1.0
- AUC ([6]; ip, 1 mg): 1,072,270 ng/ml/min
- CL (plasma clearance) ([6]; ip, 1 mg): 0.93 mL/min
- Vd (apparent volume of distribution) ([6]; ip, 1 mg): 65.5 mL
- Relative bioavailability ([6]; sc): 1.1
- AUC ([6]; sc, 1 mg): 1,182,498 ng/ml/min
- CL (plasma clearance) ([6]; sc, 1 mg): 0.85 mL/min
- Vd (apparent volume of distribution) ([6]; sc, 1 mg): 42.9 mL
- t1/2 (serum half-life) ([6]; sc, 1 mg): 34.0 min
- Relative Oral Bioavailability Compared to Three Injection Modes (% of AUC achieved by each respective injection) [7]: 52.2% of IP AUC
- Relative Oral Bioavailability Compared to Three Injection Modes (% of AUC achieved by each respective injection) ([7]; po): 37.8% of IM AUC
